Data taken from patent US20250134870A1, “PATHWAY MODULATOR, PHARMACEUTICAL COMPOSITION HAVING SAME, USE THEREOF, AND THERAPEUTIC METHOD USING SAME” (Jiangsu Yahong Meditech Co., Ltd., priority 2021, published 2025).

Experiments:
[1] = test system: bleomycin-induced skin fibrosis; experiment: Bleomycin-induced skin fibrosis in mice: skin histopathology (dermal thickness, capillary density score, inflammatory cell infiltration score); type: in vivo, male C57BL/6 mice; details: 50 mg/kg IP QD, 28 days
Procedure: The skin tissue of the lesioned skin was subjected to dehydration, embedding and sectioning according to the pathology SOP, and the tissue was stained by HE and Masson staining. Histopathological analysis was performed according to the following methods:
Masson-stained sections were panoramically scanned by using Nanozomer S210 and the scanned images were subjected to quantitative analysis using Visiopharm VIS6.0 software. The degree of fibrosis was currently represented by the dermal thickness after Masson staining.
The fields of observation was selected in the dermis layer of the lesioned area (the number of fields selected was determined according to the size of the lesioned area) and scored according to the area occupied by capillaries in the area: • 0: No capillary formed • 1: The proportion of capillaries formed was less than 25%; • 2: The proportion of capillaries formed was 25-50%; • 3: The proportion of capillaries formed was 50-75%; • 4: The proportion of capillaries formed was greater than 75%. 3.8.3 Inflammatory cell infiltration score of dermis layer
The fields of observation was selected in the dermis layer of the lesioned area (the number of fields selected was determined according to the size of the lesioned area) and scored according to the degree of inflammatory cell infiltration: • 0: No inflammatory cell infiltration: • 1: A small amount of focal inflammatory cell infiltration; • 2: Scattered diffuse inflammatory cell infiltration: • 3: A large amount of diffuse inflammatory cell infiltration; • 4: A large amount of agglomerated inflammatory cell infiltration.

[2] = test system: bleomycin-induced skin fibrosis; experiment: Bleomycin-induced skin fibrosis in mice: body weight, spleen weight, spleen/body weight ratio (Example 5); type: in vivo, male C57BL/6 mice; details: 50 mg/kg IP QD, 28 days
Procedure: Isoflurane (2.0 to 2.5%) was used to anesthetize the animals. The fur of the back was removed, and a 1 cm^2 area was selected for intradermal injection of bleomycin (0.3 mg/kg, 100 μL) every two days to establish a skin fibrosis model.
Dosing started on the day of model establishment. Each animal was weighed for the animal body weight before dosing to calculate the volume of administration, wherein the period of administration was 28 days. […] Frequency of administration: twice a day for Nintedanib group and once a day for other groups.
The change in animal body weight was recorded twice a week from the date of model establishment. The clinical manifestations of animals, such as shortness and difficulty of breath, abdominal suction, decreased activity and malaise, were closely observed.
Animals were weighed at the experimental endpoints and the body weight was recorded to calculate the volume of administration. 6 h after dosing, firstly, whole blood was collected from the orbital venous plexus of mice and subjected to blood routine test using an automated Hematology analyzer (Sysmex XS-800i). […]
Then the animals were euthanized by intraperitoneal injection of pentobarbital sodium. The material and order of dissection were as follows: Spleen was collected and weighed and the weight was recorded. […]
The mean±SEM was calculated using Graphpad prism 6.0 software. […]

[3] = test system: dextran sulfate sodium (DSS)-induced colitis; experiment: DSS-induced colitis in mice: body weight, DAI score, colon density (Examples 1, 3); type: in vivo, C57BL/6J mice; details: for Colon density: experimental endpoint
Procedure: 8-10 week old female C57BL/6J mice purchased from Charles River Laboratories were used. The mice were housed in a room at constant temperature (20+2° C.) (5 mice per cage) with a 12-hour light-dark cycle. All protocols were approved by the Institutional Animal Care and Use Committee of WuXi AppTec. These mice were adapted to the housing conditions at the animal experiment center of WuXi AppTec for at least three days prior to the experiment. […] At the experimental endpoint (see hereinafter), mice were euthanized and endpoint samples were obtained. Mice in the normal group were not given 3% DSS aqueous solution to induce colitis and were free to drink blank water. […] The animal body weight and DAI score were assessed under double-blind conditions, that is, the researchers collected the body weight data of mice and observed and scored the stool characteristics and blood stools every day, without knowing the group and dosing regimen. The DAI score was the sum of the weight loss score, stool score and bleeding score. […] The data were analyzed by analysis of variance, specifically by using the following process: using Graph Pad Prism 6.0 software to carry out post-hoc Dunnett's multiple comparison test. […] Data were expressed as mean±S.E.M. The experimental endpoint was 24 hours after administration on Day 8 for the positive drug control group and the Test group 1 #to Test group 7 #of Example 1; the experimental endpoint of the normal group and the solvent group was the same as that of the positive drug control group and Test group 1 #to Test group 7 #.

[4] = 1200 mg; 10 consecutive days; NCT02151994; cited from earlier work
[5] = test system: mesenteric lymph node immune cell subpopulations; experiment: Flow cytometry of immune cell subpopulations and cytokines in mesenteric lymph nodes of DSS colitis mice (Examples 2, 4); type: in vivo, C57BL/6J mice; details: 100 mg/kg PO QD × 8 days (Test group 7#) vs solvent group
Procedure: The experimental endpoint was 24 hours after administration on Day 8 for the positive drug control group and the Test group 1 #to Test group 7 #of Example 1; the experimental endpoint of the normal group and the solvent group was the same as that of the positive drug control group and Test group 1 #to Test group 7 #.
At the experimental endpoint, mesenteric lymphatic nodes were collected and treated as follows:
1) The mesenteric lymph nodes were gently grinded and filtered with a […] strainer (BD bioscience, Catalog No. 352350) to obtain a cell suspension, and the cells were counted.
2) The cells were suspended in a suspension solution (the suspension solution was prepared by the following process: diluting the cell activation mixture with a mixture of 90 v % 1640 medium and 10 v % fetal bovine serum to a concentration of 1×), the cell density was adjusted to 2.5×10^7/mL, and the cells were incubated at 37° C. for 5 hours. 3) The cells were washed with Dulbecco's Phosphate Buffered Saline, and stained with viable/dead stain (stain No. 12 in Table 5) at room temperature for 15 min to distinguish between viable cells and dead cells; the cells were washed with staining buffer (prepared by mixing fetal bovine serum and Dulbecco's Phosphate Buffered Saline at a volume ratio of 2:98), Fc block working solution (prepared by mixing Fc block and staining buffer at a volume ratio of 1:200) was added, and the cells were incubated at room temperature for 15 minutes.
4) The cells were surface labeled with 100 μL of antibody staining solution for flow cytometry without washing and incubated at 4° C. for 30 minutes.
5) The cells were washed once with staining buffer, 100 μL of cell fixative solution was added, and the cells were incubated at 4° C. overnight.
6) 200 μL of cell permeabilization solution was added and incubated at 4° C. for 30 minutes.
7) After washing with 250 μL of cell permeabilization solution, the cells were suspended with 100 μL of staining buffer and fluorescence was detected with a BD LSRFortessa instrument.
8) The cell subpopulations analyzed by flow cytometry included CD4+ T cell subpopulation, IL-17A+CD4+ T cell subpopulation, IFN-γ+CD4+ T cell subpopulation, TNF-α+CD4+ T cell subpopulation, CD25+FOXP3+ Treg cell subpopulation; CD8+ T cell subpopulation, IL-17A+CD8+ T cell subpopulation, IFN-γ+CD8+ T cell subpopulation, TNF-α+CD8+ T cell subpopulation; CD69+B220+ B cell subpopulation and NK1.1+CD107a+ NK cell subpopulation.

norepinephrine level = details: cited from earlier work
[6] = rats with spontaneous hypertension

## Cc1ccc(NC(=O)c2ccc(CN3CCN(C)CC3)cc2)cc1Nc1nccc(-c2cccnc2)n1 [Imatinib]
[1]
  inflammatory cell infiltration of the lesioned skin: visibly reduce
  subdermal capillary hyperplasia: visibly reduce
[2]
  death of animals: One animal in Imatinib group died on Day 28

## Fc1cc(F)c2c(c1)C[C@@H](n1c(CCNCc3ccccc3)c[nH]c1=S)CO2 [Zamicastat]
[3]; 10 mg/kg PO QD × 8 days
  Body weight on Day 7, g: 19.26 g
  Body weight on Day 7/initial body weight, %: 91.68%
  Body weight on Day 8, g: 18.37 g
  Body weight on Day 8/initial body weight, %: 87.45%
  DAI score on Day 8: 6.30
  Colon density: 35.04 mg/cm
[3]; 30 mg/kg PO QD × 8 days
  Body weight on Day 7, g: 18.96 g
  Body weight on Day 7/initial body weight, %: 91.04%
  Body weight on Day 8, g: 17.78 g
  Body weight on Day 8/initial body weight, %: 85.35%
  DAI score on Day 8: 6.30
  Colon density: 36.37 mg/cm
[3]; 100 mg/kg PO QD × 8 days
  Body weight on Day 7, g: 19.66 g
  Body weight on Day 8, g: 18.75 g
  Body weight on Day 8/initial body weight, %: 89.17%
  DAI score on Day 8: 5.20
[3]; Nepicastat 30, Etamicastat 100, Zamicastat 100 mg/kg PO QD × 8 days (Test groups 1#, 4#, 7#) vs solvent group
  severity of DSS-induced colitis and disease activity: ameliorated the severity of DSS-induced colitis and reduced disease activity
[4]
  safety: relatively good safety
[5]
  proportion of CD4+ T cell subpopulation: reduce the proportion
  proportion of CD25+FOXP3+ Treg cell subpopulation: increase the proportion
  secretion of IFN-γ by CD4+ T cell subpopulation: reduce the secretion
  secretion of IL-17A by CD4+ T cell subpopulation: reduce the secretion
  secretion of TNF-α by CD4+ T cell subpopulation: reduce the secretion
Norepinephrine level; compared with Nepicastat
  brain-blood-barrier penetration: lower levels of brain-blood-barrier penetration
Norepinephrine level; [6]
  effect on brain tissue (norepinephrine level): no effect on brain tissue
  norepinephrine level in peripheral sympathetic innervation tissues: reduce the norepinephrine level in peripheral sympathetic innervation tissues
